In ChEMBL document CHEMBL5113487, “Novel anilinopyrimidine derivatives as potential EGFRT790M/C797S Inhibitors: Design, Synthesis, biological activity study” (Bioorg Med Chem, 2022):
The source made the active and inactive calls. The rule behind the calls is not given here.

Tests used:
BaF3 [1] = assay: cells; details: Mus musculus, BaF3, 72 h
BaF3 [2] = assay: Antiproliferative activity against mouse BaF3 cells harboring del18/T790M/C797S triple mutant assessed as cell growth inhibition incubated for 72 hrs by cell titre glo luminescence assay; assay type: functional, cell-based; details: BaF3, 72 h
A-431 = assay: Antiproliferative activity against human A-431 cells assessed as cell growth inhibition incubated for 72 hrs by cell titre glo luminescence assay; assay type: functional, cell-based; details: A-431, 72 h
[3] = molecular target: RAC-gamma serine/threonine-protein kinase (Homo sapiens, UniProt Q9Y243); assay: Inhibition of AKT3 (unknown origin)
[4] = molecular target: Phosphatidylinositol 4,5-bisphosphate 3-kinase catalytic subunit alpha isoform (Homo sapiens, UniProt P42336); assay: Inhibition of PI3Kalpha (unknown origin)
CDK9/cyclin T1 = CDK9/cyclin T1 (Homo sapiens, UniProt P50750); assay: Inhibition of CDK9/Cyclin T1 (unknown origin); assay type: protein-complex assay
[5] = Antitumor activity against patient-derived human […] cells xenografted in mouse assessed as tumor growth inhibition at 40 mg/kg, po administered once a day for 28 days relative to control; assay type: functional; details: LD1-0025-200717, 672 h, time 28 day, read-out: TGI
[6] = Toxicity in Sprague-Dawley rat assessed as animal death at 3 to 15 mg/kg, po administered once a day for 4 weeks and measured 4 weeks post recovery period; assay type: organism-based; details: in vivo, 1344 h, dose 3-15 mg/kg, time 8 weeks
[7] = Antitumor activity against patient-derived human […] cells xenografted in mouse assessed as tumor growth inhibition at 20 mg/kg, po administered once a day for 28 days relative to control; assay type: functional; details: LD1-0025-200717, 672 h, time 28 day, read-out: TGI
[8] = AUC(0 to infinity) in mouse at 5 mg/kg measured upto 24 hrs by LC-MS/MS analysis; assay type: ADME, organism-based; set-up: dose 5 mg/kg, time < 24 hrs; details: in vivo
BaF3 [9] = assay: Antitumor activity against mouse BaF3 cells harboring EGFR del18/T790M/C797S triple mutant implanted in Balb/c nude mouse assessed as tumor growth inhibition at 30 mg/kg, po administered once a day for 14 days relative to control; assay type: functional; details: BaF3, 336 h, time 14 day, read-out: TGI
[10] = Drug distribution in tumor of nude mouse implanted with mouse BaF3 cells harboring EGFR del18/T790M/C797S triple mutant at 20 mg/kg, po administered as single dose and measured upto 24 hrs; assay type: ADME, organism-based, Neoplasm; details: in vivo
PC-9 [11] = assay: Antitumor activity against human PC-9 cells harboring EGFR del18/T790M/C797S triple mutant xenografted in NOD/SCID mouse assessed as tumor growth inhibition at 40 mg/kg, po administered once a day for 21 days relative to control; assay type: functional; details: PC-9, 504 h, time 21 day, read-out: TGI
[12] = Inhibition of ABL (unknown origin); set-up: species or system Homo sapiens
BaF3 [13] = assay: Antitumor activity against mouse BaF3 cells harboring EGFR del18/T790M/C797S triple mutant implanted in Balb/c nude mouse assessed as tumor weight at 15 mg/kg, po administered once a day for 14 days; assay type: functional; details: time 14 day
[14] = AUC(0 to t) in mouse at 5 mg/kg measured upto 24 hrs by LC-MS/MS analysis; assay type: ADME, organism-based; set-up: time < 24 hrs, dose 5 mg/kg; details: in vivo
[15] = molecular target: Mitogen-activated protein kinase 14 (Homo sapiens, UniProt Q16539); assay: Inhibition of P38alpha (unknown origin)
[16] = Toxicity in orally dosed Sprague-Dawley rat assessed as maximum tolerated dose administered once a day for 4 weeks and measured 4 weeks post recovery period; assay type: organism-based; details: in vivo, route po, time 8 weeks
[17] = Antitumor activity against patient-derived human […] cells xenografted in mouse assessed as tumor weight at 20 mg/kg, po administered once a day for 28 days relative to control; assay type: functional, LD1-0025-200717; details: time 28 day
[18] = Drug distribution in tumor of nude mouse implanted with mouse BaF3 cells harboring EGFR del18/T790M/C797S triple mutant at 15 to 45 mg/kg, po administered as single dose and measured after 4 hrs; assay type: ADME, organism-based, Neoplasm; details: in vivo, dose 15-45 mg/kg
[19] = Drug distribution in plasma of nude mouse implanted with mouse BaF3 cells harboring EGFR del18/T790M/C797S triple mutant at 15 to 45 mg/kg, po administered as single dose and measured after 4 hrs; assay type: ADME, organism-based; details: in vivo, dose 15-45 mg/kg
PC-9 [20] = assay: Antitumor activity against human PC-9 cells harboring EGFR del18/T790M/C797S triple mutant xenografted in NOD/SCID mouse assessed as tumor growth inhibition at 15 mg/kg, po administered once a day for 21 days relative to control; assay type: functional; details: PC-9, 504 h, time 21 day, read-out: TGI
[21] = Drug distribution in brain of nude mouse implanted with mouse BaF3 cells harboring EGFR del18/T790M/C797S triple mutant at 20 mg/kg, po administered as single dose and measured upto 24 hrs; assay type: ADME, organism-based; details: in vivo
BaF3 [22] = assay: Antitumor activity against mouse BaF3 cells harboring EGFR del18/T790M/C797S triple mutant implanted in Balb/c nude mouse assessed as tumor weight at 40 mg/kg, po administered once a day for 14 days; assay type: functional; details: time 14 day
[23] = Half-life in mouse at 5 mg/kg measured upto 24 hrs by LC-MS/MS analysis; assay type: ADME, organism-based; details: in vivo
BaF3 [24] = assay: In vivo inhibition of ERK phosphorylation in nude mouse implanted with mouse BaF3 cells harboring EGFR del18/T790M/C797S triple mutant at 20 mg/kg, po administered as single dose and measured upto 24 hrs by Western blot analysis; assay type: organism-based
CDK6/cyclin D3 = CDK6/cyclin D3 (Homo sapiens, UniProt Q00534); assay: Inhibition of CDK6/cyclin-D3 (unknown origin); assay type: protein-complex assay
[25] = Antitumor activity against patient-derived human […] cells xenografted in mouse assessed as tumor weight at 40 mg/kg, po administered once a day for 28 days relative to control; assay type: functional, LD1-0025-200717; details: time 28 day
[26] = molecular target: Serine/threonine-protein kinase B-raf (Homo sapiens, UniProt P15056); assay: Inhibition of BRAF (unknown origin)
BaF3 [27] = assay: Antitumor activity against mouse BaF3 cells harboring EGFR del18/T790M/C797S triple mutant implanted in Balb/c nude mouse assessed as tumor weight at 30 mg/kg, po administered once a day for 14 days; assay type: functional; details: time 14 day
[28] = molecular target: Epidermal growth factor receptor (Homo sapiens, UniProt P00533); assay: In vivo inhibition of EGFR phosphorylation in nude mouse implanted with mouse BaF3 cells harboring EGFR del18/T790M/C797S triple mutant at 20 mg/kg, po administered as single dose and measured upto 24 hrs by Western blot analysis
[29] = Toxicity in Sprague-Dawley rat assessed as effect on body weight at 3 to 7.5 mg/kg, po administered once a day for 4 weeks and measured 4 weeks post recovery period; assay type: organism-based; details: in vivo, 1344 h, dose 3-7.5 mg/kg, time 8 weeks
[30] = Cmax in mouse at 5 mg/kg measured upto 24 hrs by LC-MS/MS analysis; assay type: ADME, organism-based; set-up: time < 24 hrs, dose 5 mg/kg; details: in vivo
BaF3 [31] = assay: Antitumor activity against mouse BaF3 cells harboring EGFR del18/T790M/C797S triple mutant implanted in Balb/c nude mouse assessed as tumor growth inhibition at 15 mg/kg, po administered once a day for 14 days relative to control; assay type: functional; details: BaF3, 336 h, time 14 day, read-out: TGI
[32] = Toxicity in Sprague-Dawley rat assessed as body weight gain during recovery period at 15 mg/kg, po administered once a day for 4 weeks and measured 4 weeks post recovery period; assay type: organism-based; details: in vivo, 1344 h, time 8 weeks
[33] = molecular target: Epidermal growth factor receptor (Homo sapiens, UniProt P00533, C797S/EX18DEL/T790M); assay: Inhibition of EGFR del18/T790M/C797S triple mutant (unknown origin) using TK as substrate incubated for 120 mins in the presence of ATP by HTRF assay
PC-9 [34] = assay: Antitumor activity against human PC-9 cells harboring EGFR del18/T790M/C797S triple mutant xenografted in NOD/SCID mouse assessed as tumor growth inhibition at 30 mg/kg, po administered once a day for 21 days relative to control; assay type: functional; details: PC-9, 504 h, time 21 day, read-out: TGI
[35] = molecular target: Epidermal growth factor receptor (Homo sapiens, UniProt P00533, C797S/L858R/T790M); assay: Inhibition of EGFR L858R/T790M/C797S triple mutant (unknown origin) using TK as substrate incubated for 120 mins in the presence of ATP by HTRF assay
BaF3 [36] = assay: Antitumor activity against mouse BaF3 cells harboring EGFR del18/T790M/C797S triple mutant implanted in Balb/c nude mouse assessed as tumor growth inhibition at 40 mg/kg, po administered once a day for 14 days relative to control; assay type: functional; details: BaF3, 336 h, time 14 day, read-out: TGI
[37] = MRT in mouse at 5 mg/kg measured upto 24 hrs by LC-MS/MS analysis; assay type: ADME, organism-based; details: in vivo
[38] = Acute toxicity in Sprague-Dawley rat assessed as biological changes in clinical pathology at 15 to 60 mg/kg, IG administered as single dose and measured after 14 days; assay type: organism-based; details: in vivo, po, 336 h, dose 15-60 mg/kg, time 14 day

Chain of Epidermal growth factor receptor (Homo sapiens, UniProt P00533, C797S/EX18DEL/T790M) (P00533 whole entry, looked up, stated change not applied): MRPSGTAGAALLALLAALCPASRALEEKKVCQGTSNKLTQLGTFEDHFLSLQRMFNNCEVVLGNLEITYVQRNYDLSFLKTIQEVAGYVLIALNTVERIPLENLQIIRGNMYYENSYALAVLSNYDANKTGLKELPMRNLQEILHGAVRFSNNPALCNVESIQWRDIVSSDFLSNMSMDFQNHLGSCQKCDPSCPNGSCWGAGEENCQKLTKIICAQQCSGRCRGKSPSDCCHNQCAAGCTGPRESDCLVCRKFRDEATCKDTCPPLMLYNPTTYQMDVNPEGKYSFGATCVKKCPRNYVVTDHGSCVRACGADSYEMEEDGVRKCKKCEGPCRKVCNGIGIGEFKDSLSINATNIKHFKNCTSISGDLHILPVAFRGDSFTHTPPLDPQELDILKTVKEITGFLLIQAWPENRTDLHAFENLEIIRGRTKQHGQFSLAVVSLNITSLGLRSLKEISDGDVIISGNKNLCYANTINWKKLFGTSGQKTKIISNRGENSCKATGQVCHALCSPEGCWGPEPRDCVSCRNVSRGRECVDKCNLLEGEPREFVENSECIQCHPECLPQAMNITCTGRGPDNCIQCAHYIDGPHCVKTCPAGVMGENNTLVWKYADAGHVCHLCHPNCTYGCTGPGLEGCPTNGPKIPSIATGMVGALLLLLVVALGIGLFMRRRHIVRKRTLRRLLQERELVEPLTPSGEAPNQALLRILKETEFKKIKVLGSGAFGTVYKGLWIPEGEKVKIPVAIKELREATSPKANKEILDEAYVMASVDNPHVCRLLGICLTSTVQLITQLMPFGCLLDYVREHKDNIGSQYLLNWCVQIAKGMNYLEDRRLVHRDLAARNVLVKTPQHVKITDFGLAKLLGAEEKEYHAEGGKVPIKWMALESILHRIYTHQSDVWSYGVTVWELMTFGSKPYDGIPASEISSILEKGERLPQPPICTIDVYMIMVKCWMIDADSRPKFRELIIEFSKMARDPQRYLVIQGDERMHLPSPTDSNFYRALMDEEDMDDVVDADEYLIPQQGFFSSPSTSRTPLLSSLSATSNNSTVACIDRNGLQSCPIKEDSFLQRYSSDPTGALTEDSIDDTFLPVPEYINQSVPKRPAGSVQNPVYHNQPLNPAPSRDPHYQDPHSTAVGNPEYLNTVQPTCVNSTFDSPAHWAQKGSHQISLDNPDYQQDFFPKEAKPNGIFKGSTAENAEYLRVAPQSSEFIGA
Chain of Epidermal growth factor receptor (Homo sapiens, UniProt P00533) (P00533 whole entry, looked up): as the sequence (P00533 whole entry, looked up, stated change not applied) above
Chain of Serine/threonine-protein kinase B-raf (P15056 whole entry): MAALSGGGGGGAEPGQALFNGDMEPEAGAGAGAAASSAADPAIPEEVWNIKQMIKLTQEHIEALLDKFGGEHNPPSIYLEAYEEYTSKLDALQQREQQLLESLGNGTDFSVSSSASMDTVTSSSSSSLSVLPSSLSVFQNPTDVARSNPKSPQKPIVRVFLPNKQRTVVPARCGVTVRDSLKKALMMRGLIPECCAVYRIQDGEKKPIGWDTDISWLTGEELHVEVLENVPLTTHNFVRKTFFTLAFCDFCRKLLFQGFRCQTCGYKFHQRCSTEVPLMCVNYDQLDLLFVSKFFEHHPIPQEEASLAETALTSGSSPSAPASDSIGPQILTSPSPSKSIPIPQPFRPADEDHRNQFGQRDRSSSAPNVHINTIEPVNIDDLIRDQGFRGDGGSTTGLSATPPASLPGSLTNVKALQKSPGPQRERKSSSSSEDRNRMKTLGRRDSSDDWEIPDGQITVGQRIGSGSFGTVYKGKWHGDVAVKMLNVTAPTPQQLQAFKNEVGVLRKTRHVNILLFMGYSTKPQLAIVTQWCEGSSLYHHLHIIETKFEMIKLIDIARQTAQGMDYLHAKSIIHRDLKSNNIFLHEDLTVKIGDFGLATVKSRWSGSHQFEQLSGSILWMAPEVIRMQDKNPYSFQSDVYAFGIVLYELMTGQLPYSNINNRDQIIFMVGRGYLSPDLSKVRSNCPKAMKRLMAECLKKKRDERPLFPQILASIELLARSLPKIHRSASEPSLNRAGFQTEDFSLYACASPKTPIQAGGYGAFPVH
Chain of Phosphatidylinositol 4,5-bisphosphate 3-kinase catalytic subunit alpha isoform (P42336 whole entry, canonical isoform): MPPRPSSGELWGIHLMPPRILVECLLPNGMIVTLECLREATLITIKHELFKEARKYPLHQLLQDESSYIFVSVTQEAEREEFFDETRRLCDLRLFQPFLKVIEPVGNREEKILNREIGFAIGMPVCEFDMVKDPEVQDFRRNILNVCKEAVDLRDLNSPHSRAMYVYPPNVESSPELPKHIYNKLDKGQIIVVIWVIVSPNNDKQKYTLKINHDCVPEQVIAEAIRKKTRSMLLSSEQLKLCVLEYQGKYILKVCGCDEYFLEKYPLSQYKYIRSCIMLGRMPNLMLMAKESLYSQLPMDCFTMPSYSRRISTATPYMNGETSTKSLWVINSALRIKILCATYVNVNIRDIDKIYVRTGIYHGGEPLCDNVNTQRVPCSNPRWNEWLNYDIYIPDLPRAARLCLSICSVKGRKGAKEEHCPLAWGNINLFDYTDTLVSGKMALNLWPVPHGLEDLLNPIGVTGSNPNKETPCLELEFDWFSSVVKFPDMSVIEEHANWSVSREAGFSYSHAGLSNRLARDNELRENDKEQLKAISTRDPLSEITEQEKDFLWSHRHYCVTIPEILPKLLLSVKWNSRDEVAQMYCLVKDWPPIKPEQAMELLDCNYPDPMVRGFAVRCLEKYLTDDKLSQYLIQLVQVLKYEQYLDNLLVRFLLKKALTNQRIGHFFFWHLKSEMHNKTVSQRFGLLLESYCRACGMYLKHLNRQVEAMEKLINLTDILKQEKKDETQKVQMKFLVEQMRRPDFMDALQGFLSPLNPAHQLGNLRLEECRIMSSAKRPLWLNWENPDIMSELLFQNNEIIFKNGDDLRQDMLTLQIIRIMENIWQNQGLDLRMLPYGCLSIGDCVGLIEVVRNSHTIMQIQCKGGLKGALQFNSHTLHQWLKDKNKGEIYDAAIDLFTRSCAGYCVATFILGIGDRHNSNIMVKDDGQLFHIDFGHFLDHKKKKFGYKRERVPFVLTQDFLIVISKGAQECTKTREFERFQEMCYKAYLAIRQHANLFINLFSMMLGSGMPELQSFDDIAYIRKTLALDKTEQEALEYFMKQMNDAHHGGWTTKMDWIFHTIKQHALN
Chain of Mitogen-activated protein kinase 14 (Q16539 whole entry): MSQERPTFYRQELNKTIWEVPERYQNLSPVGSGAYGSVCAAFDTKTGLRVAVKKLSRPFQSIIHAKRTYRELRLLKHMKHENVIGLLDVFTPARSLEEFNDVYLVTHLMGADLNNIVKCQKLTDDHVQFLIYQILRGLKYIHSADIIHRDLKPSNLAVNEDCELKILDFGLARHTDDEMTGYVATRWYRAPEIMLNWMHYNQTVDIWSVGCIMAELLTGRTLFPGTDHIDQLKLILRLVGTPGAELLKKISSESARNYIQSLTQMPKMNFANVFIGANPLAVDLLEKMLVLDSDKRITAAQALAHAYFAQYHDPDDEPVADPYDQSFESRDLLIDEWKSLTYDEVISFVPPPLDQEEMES
Chain of RAC-gamma serine/threonine-protein kinase (Q9Y243 whole entry, canonical isoform): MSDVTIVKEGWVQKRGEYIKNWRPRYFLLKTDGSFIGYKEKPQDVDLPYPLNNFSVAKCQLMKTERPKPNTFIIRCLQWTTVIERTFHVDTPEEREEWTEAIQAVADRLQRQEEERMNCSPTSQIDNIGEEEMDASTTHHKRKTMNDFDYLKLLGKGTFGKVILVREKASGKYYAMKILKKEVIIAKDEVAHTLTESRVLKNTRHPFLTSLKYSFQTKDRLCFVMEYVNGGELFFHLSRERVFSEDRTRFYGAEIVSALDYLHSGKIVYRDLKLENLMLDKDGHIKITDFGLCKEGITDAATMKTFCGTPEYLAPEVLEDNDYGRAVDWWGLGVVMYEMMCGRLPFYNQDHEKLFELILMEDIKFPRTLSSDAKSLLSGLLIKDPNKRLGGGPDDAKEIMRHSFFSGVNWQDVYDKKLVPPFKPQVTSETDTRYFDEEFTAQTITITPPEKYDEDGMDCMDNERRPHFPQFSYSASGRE

COc1cc(N2CCC(N3CCN(C)CC3)CC2)ccc1Nc1ncc(Cl)c(Nc2ccccc2P(C)(C)=O)n1 [BRIGATINIB]
IC50 (BaF3 [1]): < 100 nM
IC50 (BaF3 [2]): 433 nM
IC50 (A-431): 709 nM

COCC1CN(C2CCN(c3cc(OC)c(Nc4ncc(Br)c(Nc5ccc6c(c5P(C)(C)=O)OCCO6)n4)cc3C)CC2)C1
IC50 [3]: > 10000 nM
IC50 [4]: > 10000 nM
IC50 (CDK9/cyclin T1): 4080 nM
inhibition in vivo at 40 mg/kg [5]: 67.4%
Activity [6]: Non-Toxic
inhibition in vivo at 20 mg/kg [7]: 58.4%
AUC(0-inf) [8]: 11600 ng·h/mL
inhibition in vivo at 30 mg/kg (BaF3 [9]): 82.6%
Drug uptake [10]: Active
inhibition in vivo at 40 mg/kg (PC-9 [11]): 68.8%
IC50 [12]: 86 nM
Activity (BaF3 [13]): 0.653 g
AUC(0-t) at 24 h [14]: 11600 ng·h/mL
IC50 [15]: > 10000 nM
MTD at 1344 h [16]: 15 mg/kg
Activity [17]: 0.475 g
Drug uptake [18]: Active
IC50 (BaF3 [2]): 14 nM
Drug uptake [19]: Active
inhibition in vivo at 15 mg/kg (PC-9 [20]): 22%
Drug uptake [21]: Active
Activity (BaF3 [22]): 0.161 g
half-life [23]: 2.9 h
inhibition (BaF3 [24]): Active
IC50 (CDK6/cyclin D3): > 10000 nM
Activity [25]: 0.38 g
IC50 [26]: > 10000 nM
Activity (BaF3 [27]): 0.319 g
inhibition [28]: Active
Activity [29]: Non-Toxic
Cmax [30]: 1990 ng/mL
inhibition in vivo at 15 mg/kg (BaF3 [31]): 48.4%
Activity [32]: Toxic
IC50 [33]: 0.31 nM
inhibition in vivo at 30 mg/kg (PC-9 [34]): 47.2%
IC50 [35]: 0.09 nM
inhibition in vivo at 40 mg/kg (BaF3 [36]): 90.3%
MRT [37]: 4.7 h
Activity [38]: Non-Toxic
